Laboratory results from US8916557B2, “Substituted 4-Aryl-N-phenyl-1,3,5-triazin-2-amines” (Bayer Intellectual Property GmbH, priority 2011, dated 2014).

Columns and labels:
CDK9/CycT1 = target: T1, CDK9/CycT1 (Homo sapiens, UniProt P50750); assay: CDK9/CycT1 kinase assay (TR-FRET); format: biochemical; settings: Method 1, 10 μM ATP
T1 construct: Recombinant full-length His-tagged human CDK9 and CycT1; His; purchased Invitrogen PV4131; host or cells: insect cells
Description: 1. CDK9/CycT1 Kinase Assay:
CDK9/CycT1-inhibitory activity of compounds of the present invention was quantified employing the CDK9/CycT1 TR-FRET assay as described in the following paragraphs:
Recombinant full-length His-tagged human CDK9 and CycT1, expressed in insect cells and purified by Ni-NTA affinity chromatography, were purchased from Invitrogen (Cat. No PV4131). As substrate for the kinase reaction biotinylated peptide biotin-Ttds-[…] (C-terminus in amid form) was used which can be purchased e.g. form the company JERINI Peptide Technologies (Berlin, Germany). For the assay 50 nl of a 100fold concentrated solution of the test compound in DMSO was pipetted into a black low volume 384well microtiter plate (Greiner Bio-One, Frickenhausen, Germany), 2 μl of a solution of CDK9/CycT1 in aqueous assay buffer [50 mM Tris/HCl pH 8.0, 10 mM MgCl2, 1.0 mM dithiothreitol, 0.1 mM sodium ortho-vanadate, 0.01% (v/v) Nonidet-P40 (Sigma)] were added and the mixture was incubated for 15 min at 22° C. to allow pre-binding of the test compounds to the enzyme before the start of the kinase reaction. Then the kinase reaction was started by the addition of 3 μl of a solution of adenosine-tri-phosphate (ATP, 16.7 μM=>final conc. in the 5 μl assay volume is 10 μM) and substrate (1.67 μM=>final conc. in the 5 μl assay volume is 1 μM) in assay buffer and the resulting mixture was incubated for a reaction time of 25 min at 22° C. The concentration of CDK9/CycT1 was adjusted depending of the activity of the enzyme lot and was chosen appropriate to have the assay in the linear range, typical concentrations were in the range of 1 μg/ml. The reaction was stopped by the addition of 5 μl of a solution of TR-FRET detection reagents (0.2 μM streptavidine-XL665 [Cisbio Bioassays, Codolet, France] and 1 nM anti-RB(pSer807/pSer811)-antibody from BD Pharmingen [#558389] and 1.2 nM LANCE EU-W1024 labeled anti-mouse IgG antibody [Perkin-Elmer, product no. AD0077]) in an aqueous EDTA-solution (100 mM EDTA, 0.2% (w/v) bovine serum albumin in 100 mM HEPES/NaOH pH 7.0).
(§1) The resulting mixture was incubated 1 h at 22° C. to allow the formation of complex between the phosphorylated biotinylated peptide and the detection reagents. Subsequently the amount of phosphorylated substrate was evaluated by measurement of the resonance energy transfer from the Eu-chelate to the streptavidine-XL. Therefore, the fluorescence emissions at 620 nm and 665 nm after excitation at 350 nm was measured in a HTRF reader, e.g. a Rubystar (BMG Labtechnologies, Offenburg, Germany) or a Viewlux (Perkin-Elmer). The ratio of the emissions at 665 nm and at 622 nm was taken as the measure for the amount of phosphorylated substrate.

CDK2/CycE = target: T2, CDK2/CycE (Homo sapiens, UniProt P24941); assay: CDK2/CycE kinase assay (TR-FRET); format: biochemical; settings: Method 2, 10 μM ATP
T2 construct: GST; purchased ProQinase GmbH (Freiburg, Germany); host or cells: insect cells (Sf9)
Description: 2. CDK2/CycE Kinase Assay:
CDK2/CycE-inhibitory activity of compounds of the present invention was quantified employing the CDK2/CycE TR-FRET assay as described in the following paragraphs:
Recombinant fusion proteins of GST and human CDK2 and of GST and human CycE, expressed in insect cells (Sf9) and purified by Glutathion-Sepharose affinity chromatography, were purchased from ProQinase GmbH (Freiburg, Germany). As substrate for the kinase reaction biotinylated peptide biotin-Ttds-[…] (C-terminus in amid form) was used which can be purchased e.g. form the company JERINI Peptide Technologies (Berlin, Germany).
For the assay 50 nl of a 100fold concentrated solution of the test compound in DMSO was pipetted into a black low volume 384well microtiter plate (Greiner Bio-One, Frickenhausen, Germany), 2 μl of a solution of CDK2/CycE in aqueous assay buffer [50 mM Tris/HCl pH 8.0, 10 mM MgCl2, 1.0 mM dithiothreitol, 0.1 mM sodium ortho-vanadate, 0.01% (v/v) Nonidet-P40 (Sigma)] were added and the mixture was incubated for […] at 22° C. to allow pre-binding of the test compounds to the enzyme before the start of the kinase reaction. Then the kinase reaction was started by the addition of 3 μl of a solution of adenosine-tri-phosphate (ATP, 16.7 μM=>final conc. in the 5 it assay volume is 10 μM) and substrate (1.25 μM=>final conc. in the 5 it assay volume is 0.75 μM) in assay buffer and the resulting mixture was incubated for a reaction time of […] at 22° C. The concentration of CDK2/CycE was adjusted depending of the activity of the enzyme lot and was chosen appropriate to have the assay in the linear range, typical concentrations were in the range of 130 ng/ml. The reaction was stopped by the addition of 5 it of a solution of TR-FRET detection reagents (0.2 μM streptavidine-XL665 [Cisbio Bioassays, Codolet, France] and 1 nM anti-RB(pSer807/pSer811)-antibody from BD Pharmingen [#558389] and 1.2 nM LANCE EU-W1024 labeled anti-mouse IgG antibody [Perkin-Elmer, product no. AD0077]) in an aqueous EDTA-solution (100 mM EDTA, 0.2% (w/v) bovine serum albumin in 100 mM HEPES/NaOH pH 7.0).
as §1, with “TR-FRET” for “HTRF”

T1 sequence (P50750 whole entry): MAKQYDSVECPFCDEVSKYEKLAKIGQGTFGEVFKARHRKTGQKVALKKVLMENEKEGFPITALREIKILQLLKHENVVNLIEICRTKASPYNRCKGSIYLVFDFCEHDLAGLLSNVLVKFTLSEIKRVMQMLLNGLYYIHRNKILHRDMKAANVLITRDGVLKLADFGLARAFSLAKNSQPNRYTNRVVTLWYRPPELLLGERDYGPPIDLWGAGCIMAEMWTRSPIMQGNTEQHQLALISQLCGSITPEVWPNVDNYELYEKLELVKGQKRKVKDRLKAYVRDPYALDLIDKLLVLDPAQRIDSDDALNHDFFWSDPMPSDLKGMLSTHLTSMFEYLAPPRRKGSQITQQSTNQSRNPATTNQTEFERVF
T1 sequence (O60563 whole entry partner): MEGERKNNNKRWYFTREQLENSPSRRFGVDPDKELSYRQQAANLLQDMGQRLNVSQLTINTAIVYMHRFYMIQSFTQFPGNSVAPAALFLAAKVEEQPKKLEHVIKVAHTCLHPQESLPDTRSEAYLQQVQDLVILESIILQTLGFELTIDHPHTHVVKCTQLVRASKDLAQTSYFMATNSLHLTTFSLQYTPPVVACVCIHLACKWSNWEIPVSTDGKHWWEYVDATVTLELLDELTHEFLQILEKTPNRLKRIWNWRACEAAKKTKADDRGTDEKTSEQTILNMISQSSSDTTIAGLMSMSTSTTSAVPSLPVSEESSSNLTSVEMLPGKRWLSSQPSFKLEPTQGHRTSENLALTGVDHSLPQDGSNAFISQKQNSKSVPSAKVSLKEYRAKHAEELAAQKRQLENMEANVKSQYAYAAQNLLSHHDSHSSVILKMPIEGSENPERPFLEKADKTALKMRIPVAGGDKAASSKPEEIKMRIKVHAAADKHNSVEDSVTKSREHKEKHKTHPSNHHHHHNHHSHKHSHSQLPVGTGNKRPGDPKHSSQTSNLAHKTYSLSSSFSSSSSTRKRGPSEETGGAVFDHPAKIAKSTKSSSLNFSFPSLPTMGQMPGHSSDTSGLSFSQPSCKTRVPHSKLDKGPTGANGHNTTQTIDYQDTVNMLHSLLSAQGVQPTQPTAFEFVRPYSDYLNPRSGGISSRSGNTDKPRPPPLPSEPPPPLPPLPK

In the case of CS(=O)(=O)Cc1cccc(Nc2ncnc(-c3cccc4c3OC(F)(F)C(F)(F)O4)n2)c1 [Example 19, N-{3-[(Methylsulfonyl)methyl]phenyl}-4-(2,2,3,3-tetrafluoro-2,3-dihydro-1,4-benzodioxin-5-yl)-1,3,5-triazin-2-amine], the IC50 (CDK9/CycT1) is reported as 35 nM and the IC50 (CDK2/CycE) is reported as 640 nM.
Work on CS(=O)(=O)Cc1cccc(Nc2ncnc(-c3ccccc3OCc3ccccc3Cl)n2)c1 [Example 27, 4-{2-[(2-Chlorobenzyl)oxy]phenyl}-N-{3-[(methylsulfonyl)methyl]phenyl}-1,3,5-triazin-2-amine] yielded an IC50 (CDK9/CycT1) of 87 nM and an IC50 (CDK2/CycE) of 8800 nM.
In the case of CS(=O)(=O)Cc1cccc(Nc2ncnc(-c3ccc(F)cc3OCC3(F)CCCCC3)n2)c1 [Example 66, 4-{4-Fluoro-2-[(1-fluorocyclohexyl)-methoxy]phenyl}-N-{3-[(methylsulfonyl)-methyl]phenyl}-1,3,5-triazin-2-amine], the IC50 (CDK9/CycT1) is reported as 22 nM and the IC50 (CDK2/CycE) is reported as 6800 nM.
For CS(=O)(=O)Cc1cccc(Nc2ncnc(-c3ccccc3OC(F)(F)F)n2)c1 [Example 7, N-{3-[(Methylsulfonyl)methyl]phenyl}-4-[2-(trifluoromethoxy)phenyl]-1,3,5-triazin-2-amine], the IC50 (CDK9/CycT1) was 330 nM and the IC50 (CDK2/CycE) was 5400 nM.
With CS(=O)(=O)Cc1cccc(Nc2ncnc(-c3ccc(F)cc3OCCC3CCCCC3)n2)c1 [Example 63, 4-[2-(2-Cyclohexylethoxy)-4-fluorophenyl]-N-{3-[(methylsulfonyl)methyl]phenyl}-1,3,5-triazin-2-amine] the IC50 (CDK9/CycT1) was 170 nM and the IC50 (CDK2/CycE) was 7400 nM.
CS(=O)(=O)Cc1cccc(Nc2ncnc(-c3cccc4c3OC(F)(F)O4)n2)c1 [Example 6, 4-(2,2-Difluoro-1,3-benzodioxol-4-yl)-N-{3-[(methylsulfonyl)methyl]phenyl}-1,3,5-triazin-2-amine] showed an IC50 (CDK9/CycT1) of 33 nM and an IC50 (CDK2/CycE) of 1300 nM.
With COc1cc(F)ccc1-c1ncnc(Nc2cccc(CS(=O)(=O)C(C)(C)C)c2)n1 [Example 17, N-{3-[(tert-Butylsulfonyl)methyl]phenyl}-4-(4-fluoro-2-methoxyphenyl)-1,3,5-triazin-2-amine] the IC50 (CDK9/CycT1) was 47 nM and the IC50 (CDK2/CycE) was 2000 nM.
Compound CS(=O)(=O)Cc1cccc(Nc2ncnc(-c3cc(F)ccc3OCC3CCOCC3)n2)c1 [Example 21, 4-[5-Fluoro-2-(tetrahydro-2H-pyran-4-ylmethoxy)phenyl]-N-{3-[(methylsulfonyl)methyl]phenyl}-1,3,5-triazin-2-amine] has an IC50 (CDK9/CycT1) of 110 nM and an IC50 (CDK2/CycE) of 8800 nM.
Compound COc1c(-c2ncnc(Nc3cccc(CS(C)(=O)=O)c3)n2)ccc(F)c1F [Example 2, 4-(3,4-Difluoro-2-methoxyphenyl)-N-{3-[(methylsulfonyl)methyl]phenyl}-1,3,5-triazin-2-amine] has an IC50 (CDK9/CycT1) of 160 nM and an IC50 (CDK2/CycE) of 8600 nM.
CS(=O)(=O)Cc1cccc(Nc2ncnc(-c3ccc(F)cc3OCc3ccnc(F)c3)n2)c1 [Example 82, 4-{4-Fluoro-2-[(2-fluoropyridin-4-yl)methoxy]-phenyl}-N-{3-[(methylsulfonyl)-methyl]-phenyl}-1,3,5-triazin-2-amine] was tested, and the IC50 (CDK9/CycT1) was 1 nM and the IC50 (CDK2/CycE) was 75 nM.
For COc1cc(F)ccc1-c1ncnc(Nc2cccc(CS(=O)(=O)c3ccccc3)c2)n1 [Example 35, 4-(4-Fluoro-2-methoxyphenyl)-N-{3-[(phenylsulfonyl)methyl]phenyl}-1,3,5-triazin-2-amine], the IC50 (CDK9/CycT1) was 30 nM and the IC50 (CDK2/CycE) was 2200 nM.
In the case of CS(=O)(=O)Cc1cccc(Nc2ncnc(-c3ccc(F)cc3OC(F)F)n2)c1 [Example 15, 4-[2-(Difluoromethoxy)-4-fluorophenyl]-N-{3-[(methylsulfonyl)methyl]phenyl}-1,3,5-triazin-2-amine], the IC50 (CDK9/CycT1) is reported as 130 nM and the IC50 (CDK2/CycE) is reported as 3900 nM.
Compound COc1ccc(F)cc1-c1ncnc(Nc2cccc(CS(C)(=O)=O)c2)n1 [Example 11, 4-(5-Fluoro-2-methoxyphenyl)-N-{3-[(methylsulfonyl)methyl]phenyl}-1,3,5-triazin-2-amine] has an IC50 (CDK9/CycT1) of 33 nM and an IC50 (CDK2/CycE) of 1300 nM.
For CS(=O)(=O)Cc1cccc(Nc2ncnc(-c3ccc(F)cc3OC3CCCC3)n2)c1 [Example 65, 4-[2-(Cyclopentyloxy)-4-fluorophenyl]-N-{3-[(methylsulfonyl)methyl]phenyl}-1,3,5-triazin-2-amine], the IC50 (CDK9/CycT1) was 36 nM and the IC50 (CDK2/CycE) was 2300 nM.
With CCOCCOc1cc(F)ccc1-c1ncnc(Nc2cccc(CS(C)(=O)=O)c2)n1 [Example 51, 4-[2-(2-Ethoxyethoxy)-4-fluorophenyl]-N-{3-[(methylsulfonyl)methyl]phenyl}-1,3,5-triazin-2-amine] the IC50 (CDK9/CycT1) was 80 nM and the IC50 (CDK2/CycE) was 9400 nM.
In the case of CS(=O)(=O)Cc1cccc(Nc2ncnc(-c3ccc(F)cc3OC3CCC3)n2)c1 [Example 64, 4-[2-(Cyclobutyloxy)-4-fluorophenyl]-N-{3-[(methylsulfonyl)methyl]phenyl}-1,3,5-triazin-2-amine], the IC50 (CDK9/CycT1) is reported as 34 nM and the IC50 (CDK2/CycE) is reported as 1800 nM.
Compound CC(C)Oc1cc(F)ccc1-c1ncnc(Nc2cccc(CS(C)(=O)=O)c2)n1 [Example 5, 4-[4-Fluoro-2-(propan-2-yloxy)phenyl]-N-{3-[(methylsulfonyl)methyl]phenyl}-1,3,5-triazin-2-amine] has an IC50 (CDK9/CycT1) of 25 nM and an IC50 (CDK2/CycE) of 1400 nM.
CS(=O)(=O)Cc1cccc(Nc2ncnc(-c3ccccc3OCC(F)(F)F)n2)c1 [Example 16, N-{3-[(Methylsulfonyl)methyl]phenyl}-4-[2-(2,2,2-trifluoroethoxy)phenyl]-1,3,5-triazin-2-amine] showed an IC50 (CDK9/CycT1) of 74 nM and an IC50 (CDK2/CycE) of 8300 nM.
For COc1ncccc1-c1ncnc(Nc2cccc(CS(C)(=O)=O)c2)n1 [Example 20, 4-(2-Methoxypyridin-3-yl)-N-{3-[(methylsulfonyl)methyl]phenyl}-1,3,5-triazin-2-amine], the IC50 (CDK9/CycT1) was 110 nM and the IC50 (CDK2/CycE) was 8200 nM.
With CS(=O)(=O)Cc1cccc(Nc2ncnc(-c3cc(F)ccc3OCc3ccccc3F)n2)c1 [Example 30, 4-{5-Fluoro-2-[(2-fluorobenzyl)oxy]phenyl}-N-{3-[(methylsulfonyl)methyl]phenyl}-1,3,5-triazin-2-amine] the IC50 (CDK9/CycT1) was 32 nM and the IC50 (CDK2/CycE) was 6600 nM.
